These results are taken from patent US9249128B2 (priority 2010, dated 2016).

Read-outs that look alike come from different tables or passages of the source.

In the assay the target is T1, KIAA1363 (Mus musculus, UniProt Q8BLF1).
T1 construct: ABPP analysis of KIAA1363 activity in mouse brain membrane proteome; from tissue; host or cells: mouse brain (membrane fraction)
T1 sequence (Q8BLF1 1-408): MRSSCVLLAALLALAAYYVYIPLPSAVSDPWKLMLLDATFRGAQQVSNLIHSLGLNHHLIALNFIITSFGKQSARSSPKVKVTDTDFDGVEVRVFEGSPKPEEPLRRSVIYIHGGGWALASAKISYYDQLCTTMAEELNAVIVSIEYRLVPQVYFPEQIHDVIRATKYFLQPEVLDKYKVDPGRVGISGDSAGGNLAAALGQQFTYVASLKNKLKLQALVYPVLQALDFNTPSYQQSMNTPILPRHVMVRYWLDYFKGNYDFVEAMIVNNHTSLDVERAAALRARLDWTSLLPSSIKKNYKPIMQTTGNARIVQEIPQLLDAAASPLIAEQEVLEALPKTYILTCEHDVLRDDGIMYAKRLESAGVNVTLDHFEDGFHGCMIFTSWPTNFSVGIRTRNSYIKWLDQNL
The assay is described as follows: Gel-based competitive ABPP of KIAA1363 in mouse brain membrane proteome (FP-rhodamine). The assay is classed as biochemical. As to the method:
In various embodiments, the invention provides a method of inhibiting a serine hydrolase, comprising contacting the hydrolase with a compound of formula (I), e.g., a compound selected from set of compounds shown in Table 1, below. […] IC50 values were derived from ABPP analysis of KIAA1363 activity in mouse brain membrane proteome and are averages of three replicates. Inhibitors were added to the proteome for 30 min before addition of FP-rhodamine (1 μM, 30 min).
Tissues were Dounce-homogenized in PBS, pH 7.4, followed by a low-speed spin (1,400 g, 5 min) to remove debris. The supernatant was then subjected to centrifugation (100,000×g, 45 min) to provide the cytosolic fraction in the supernatant and the unsoluble fraction as a pellet. The pellet was washed and resuspended in PBS buffer by sonication. Total protein concentration in each fraction was determined using a protein assay kit (Bio-Rad). Samples were stored at −80° C. until use.
For ABPP experiments, cell lysate and tissue proteomes were treated with 1 μM FP-rhodamine for 30 min at room temperature (50 μL total reaction volume) as described previously (Nomura et al., 2010). Reactions were quenched with one volume of standard 4×SDS/PAGE loading buffer (reducing), separated by SDS/PAGE (10% acrylamide), and visualized in-gel with a Hitachi FMBio IIe flatbed fluorescence scanner (MiraiBio). Inhibitors were preincubated prior (30 min or 4 h at 37° C. in vitro or in situ, respectively) to the addition of FP-rhodamine.

[1] abbreviates: mouse brain membrane proteome, inhibitor 30 min before FP-rhodamine (1 μM, 30 min), averages of three replicates, read-out: IC50 (KIAA1363).
[2] abbreviates: screened against KIAA1363, Table 1, read-out: IC50 values of less than 1 micromolar.

As to `CCOc1ccccc1OC(=O)NCCCc1ccccc1`, the IC50 under setting [1] was determined as 1.79 µM.

On to `Cc1ccc2ccccc2c1OC(=O)NCc1ccc(-c2ccccc2)cc1`, for which the IC50 under setting [1] was greater than 50 µM.

As to `CCOc1ccccc1OC(=O)NCc1ccc(-c2ccccc2)cc1`, under setting [1], the IC50 was greater than 50 µM.

Turning to `CCOc1ccccc1OC(=O)NCCc1cccs1`, the IC50 under setting [1] was greater than 10 µM.

Regarding `CCOc1ccccc1OC(=O)NCCc1ccc2ccccc2c1`, the IC50 reads like this: under setting [1], 0.89 µM; under setting [2], less than 1 µM.

Take `CC1(C)Cc2cccc(OC(=O)NCc3ccc(I)cc3)c2O1` [JW147, 2,2-dimethyl-2,3-dihydrobenzofuran-7-yl 4-iodobenzylcarbamate]: the IC50 is, setting by setting: under setting [1], 0.148 µM; under setting [2], less than 1 µM.

Consider `O=C(NCCc1ccc(F)cc1)Oc1ccc(-n2cccc2)cc1` [JW382, 4-(1H-pyrrol-1-yl)phenyl 4-fluorophenethylcarbamate], for which, under setting [1], the IC50 was found to be 1.2 µM.

As to `O=C(NCc1ccc(C(F)(F)F)cc1)Oc1ccc(-n2cccc2)cc1` [JW383, 4-(1H-pyrrol-1-yl)phenyl 4-(trifluoromethyl)benzylcarbamate], the IC50 reads like this: under setting [1], 0.997 µM; under setting [2], less than 1 µM.

In the case of `COc1ccc(CNC(=O)Oc2ccc(-n3cccc3)cc2)cc1` [JW384, 4-(1H-pyrrol-1-yl)phenyl 4-methoxybenzylcarbamate], the IC50 by setting is: under setting [1], 0.668 µM; under setting [2], less than 1 µM.

For `Cc1ccc2ccccc2c1OC(=O)NCc1ccc(C(F)(F)F)cc1` [JW385, 2-methylnaphthalen-1-yl 4-(trifluoromethyl)benzylcarbamate], the IC50 under setting [1] is greater than 50 µM.

Regarding `COc1ccc(CNC(=O)Oc2c(C)ccc3ccccc23)cc1` [JW386, 2-methylnaphthalen-1-yl 4-methoxybenzylcarbamate], the IC50 under setting [1] is greater than 10 µM.

As to `CCOc1ccccc1OC(=O)NCc1ccc(C(F)(F)F)cc1` [JW387, 2-ethoxyphenyl 4-(trifluoromethyl)benzylcarbamate], under setting [1], the IC50 came to 2.82 µM.

For `CCOc1ccccc1OC(=O)NCc1ccc(OC)cc1` [JW388, 2-ethoxyphenyl 4-methoxybenzylcarbamate], the IC50 under setting [1] was 1.61 µM.

On to `O=C(NCc1ccc(OC(F)(F)F)cc1)Oc1ccc(-n2cccc2)cc1` [JW389, 4-(1H-pyrrol-1-yl)phenyl 4-(trifluoromethoxy)benzylcarbamate], for which the IC50 by setting is: under setting [1], 0.263 µM; under setting [2], less than 1 µM.

For `Cc1ccc2ccccc2c1OC(=O)NCc1ccc(OC(F)(F)F)cc1` [JW390, 2-methylnaphthalen-1-yl 4-(trifluoromethoxy)benzylcarbamate], the IC50 under setting [1] was greater than 10 µM.

As for `CCOc1ccccc1OC(=O)NCc1ccc(OC(F)(F)F)cc1` [JW391, 2-ethoxyphenyl 4-(trifluoromethoxy)benzylcarbamate], the IC50 under setting [1] came out at 1.05 µM.

Consider `O=C(NCc1ccc(Cl)cc1)Oc1ccc(-n2cccc2)cc1` [JW392, 4-(1H-pyrrol-1-yl)phenyl 4-chlorobenzylcarbamate], for which the IC50 is 0.385 µM under setting [1] and less than 1 µM under setting [2].

With `O=C(NCCCc1ccccc1)Oc1ccc(-n2cccc2)cc1` [JW393, 4-(1H-pyrrol-1-yl)phenyl (3-phenylpropyl)carbamate], the IC50 under setting [1] was greater than 50 µM.

Turning to `Cc1ccc2ccccc2c1OC(=O)NCc1ccc(Cl)cc1` [JW395, 2-methylnaphthalen-1-yl 4-chlorobenzylcarbamate], under setting [1], the IC50 was greater than 50 µM.

Regarding `Cc1ccc2ccccc2c1OC(=O)NCCCc1ccccc1` [JW396, 2-methylnaphthalen-1-yl (3-phenylpropyl)carbamate], the IC50 under setting [1] was greater than 10 µM.

In the case of `CCOc1ccccc1OC(=O)NCc1ccc(Cl)cc1` [JW398, 2-ethoxyphenyl 4-chlorobenzylcarbamate], the IC50 is 0.977 µM under setting [1] and less than 1 µM under setting [2].

Turning to `CCCCc1ccc(CNC(=O)Oc2c(C)ccc3ccccc23)cc1` [JW406, 2-methylnaphthalen-1-yl 4-butylbenzylcarbamate], the IC50 under setting [1] is greater than 50 µM.

As for `CCCCc1ccc(CNC(=O)Oc2ccccc2OCC)cc1` [JW409, 2-ethoxyphenyl 4-butylbenzylcarbamate], the IC50 under setting [1] is greater than 50 µM.

Turning to `O=C(NCCc1ccc(Br)cc1)Oc1ccc(-n2cccc2)cc1` [JW412, 4-(1H-pyrrol-1-yl)phenyl 4-bromophenethylcarbamate], under setting [1], the IC50 was determined as 1.66 µM.

`O=C(NCCc1cccs1)Oc1ccc(-n2cccc2)cc1` [JW413, 4-(1H-pyrrol-1-yl)phenyl (2-(thiophen-2-yl)ethyl)carbamate]: the IC50 is 0.618 µM under setting [1] and less than 1 µM under setting [2].

In the case of `O=C(NCCc1ccc2c(c1)OCO2)Oc1ccc(-n2cccc2)cc1` [JW414, 4-(1H-pyrrol-1-yl)phenyl (2-(benzo[d][1,3]dioxol-5-yl)ethyl)carbamate], under setting [1], the IC50 was greater than 10 µM.

As for `Cc1ccc2ccccc2c1OC(=O)NCCc1ccc(Br)cc1` [JW415, 2-methylnaphthalen-1-yl 4-bromophenethylcarbamate], the IC50 under setting [1] worked out at 1.08 µM.

Regarding `Cc1ccc2ccccc2c1OC(=O)NCCc1cccs1` [JW416, 2-methylnaphthalen-1-yl (2-(thiophen-2-yl)ethyl)carbamate], the IC50 under setting [1] was 3.31 µM.

On to `Cc1ccc2ccccc2c1OC(=O)NCCc1ccc2c(c1)OCO2` [JW417, 2-methylnaphthalen-1-yl (2-(benzo[d][1,3]dioxol-5-yl)ethyl)carbamate], for which the half-inhibitory concentration (IC50) runs as follows: under setting [1], 0.142 µM; under setting [2], less than 1 µM.

For `CCOc1ccccc1OC(=O)NCCc1ccc(Br)cc1` [JW418, 2-ethoxyphenyl 4-bromophenethylcarbamate], the IC50 is, setting by setting: under setting [1], 0.329 µM; under setting [2], less than 1 µM.

With `CCOc1ccccc1OC(=O)NCCc1ccc2c(c1)OCO2` [JW420, 2-ethoxyphenyl (2-(benzo[d][1,3]dioxol-5-yl)ethyl)carbamate], under setting [1], the IC50 amounted to 1.34 µM.

For `O=C(NCCc1ccc(Cl)c(Cl)c1)Oc1ccc(-n2cccc2)cc1` [JW421, 4-(1H-pyrrol-1-yl)phenyl 3,4-dichlorophenethylcarbamate], the IC50 under setting [1] was greater than 10 µM.

Regarding `Cc1ccc2ccccc2c1OC(=O)NCCc1ccc(Cl)c(Cl)c1` [JW422, 2-methylnaphthalen-1-yl 3,4-dichlorophenethylcarbamate], the IC50 was 0.665 µM under setting [1] and less than 1 µM under setting [2].

As for `CCOc1ccccc1OC(=O)NCCc1ccc(Cl)c(Cl)c1` [JW423, 2-ethoxyphenyl 3,4-dichlorophenethylcarbamate], the IC50 was 0.498 µM under setting [1] and less than 1 µM under setting [2].

With `O=C(NCCN1CCOCC1)Oc1ccc(-n2cccc2)cc1` [JW425, 4-(1H-pyrrol-1-yl)phenyl (2-morpholinoethyl)carbamate], the IC50 was greater than 50 µM.

As to `O=C(NCCc1cc2ccccc2[nH]1)Oc1ccc(-n2cccc2)cc1` [JW426, 4-(1H-pyrrol-1-yl)phenyl (2-(1H-indol-2-yl)ethyl)carbamate], the IC50 under setting [1] was greater than 50 µM.

Molecule `Cc1ccc2ccccc2c1OC(=O)NCCN1CCOCC1` [JW427, 2-methylnaphthalen-1-yl (2-morpholinoethyl)carbamate] had an IC50 greater than 50 µM.

In the case of `Cc1ccc2ccccc2c1OC(=O)NCCc1cc2ccccc2[nH]1` [JW428, 2-methylnaphthalen-1-yl (2-(1H-indol-2-yl)ethyl)carbamate], the half-maximal inhibitory concentration (IC50) under setting [1] worked out at 3.94 µM.

As to `CCOc1ccccc1OC(=O)NCCN1CCOCC1` [JW429, 2-ethoxyphenyl (2-morpholinoethyl)carbamate], the IC50 was greater than 50 µM.

On to `CCOc1ccccc1OC(=O)NCCc1cc2ccccc2[nH]1` [JW430, 2-ethoxyphenyl (2-(1H-indol-2-yl)ethyl)carbamate], for which the IC50 under setting [1] is greater than 50 µM.

On to `COc1ccc(CCNC(=O)Oc2ccc(-n3cccc3)cc2)cc1` [JW431, 4-(1H-pyrrol-1-yl)phenyl 4-methoxyphenethylcarbamate], for which the IC50 under setting [1] worked out at 1.29 µM.

On to `COc1cccc(CCNC(=O)Oc2ccc(-n3cccc3)cc2)c1` [JW432, 4-(1H-pyrrol-1-yl)phenyl 3-methoxyphenethylcarbamate], for which the IC50 under setting [1] was greater than 10 µM.

On to `O=C(NCCC(c1ccccc1)c1ccccc1)Oc1ccc(-n2cccc2)cc1` [JW433, 4-(1H-pyrrol-1-yl)phenyl (3,3-diphenylpropyl)carbamate], for which the IC50 under setting [1] was greater than 50 µM.

On to `O=C(NCC(c1ccccc1)c1ccccc1)Oc1ccc(-n2cccc2)cc1` [JW434, 4-(1H-pyrrol-1-yl)phenyl (2,2-diphenylethyl)carbamate], for which the IC50 under setting [1] is greater than 50 µM.

Consider `O=C(NCCc1ccc2ccccc2c1)Oc1ccc(-n2cccc2)cc1` [JW435, 4-(1H-pyrrol-1-yl)phenyl (2-(naphthalen-2-yl)ethyl)carbamate], for which the IC50 under setting [1] was greater than 50 µM.

What is called IC50 is the midpoint of a concentration-inhibition curve.
